Results taken from ChEMBL document CHEMBL5303304, “EUbOPEN Chemogenomics Library - IncuCyte” (2023).

Columns and labels:
Assay type in all cases: toxicity, cell-based
HEK-293T = experiment: Incucyte cell viability with HEK293T; conditions: human, 10 µM, compound concentration 10 uM
Fibroblast = experiment: Incucyte cell viability with human fibroblast; conditions: 10 µM, compound concentration 10 uM
U2OS = experiment: Incucyte cell viability with U2OS; conditions: human, 10 µM, compound concentration 10 uM
Also: unitless GR value; below 1 slowed growth and below 0 cell loss.

| Compound | Growth Rate (HEK-293T; 18 h, replicate number 2) | Growth Rate (HEK-293T; 24 h, replicate number 1) | Growth Rate (HEK-293T; 24 h, replicate number 2) | Growth Rate (Fibroblast; 24 h, replicate number 1) | Growth Rate (Fibroblast; 24 h, replicate number 2) | Growth Rate (U2OS; 0 h, replicate number 1) | Growth Rate (U2OS; 6 h, replicate number 2) | Growth Rate (U2OS; 12 h, replicate number 2) | Growth Rate (U2OS; 18 h, replicate number 1) | Growth Rate (U2OS; 24 h, replicate number 2) | Growth Rate (HEK-293T; 0 h, replicate number 2) | Growth Rate (HEK-293T; 6 h, replicate number 1) | Growth Rate (HEK-293T; 12 h, replicate number 1) | Growth Rate (HEK-293T; 12 h, replicate number 2) | Growth Rate (HEK-293T; 18 h, replicate number 1) | Growth Rate (Fibroblast; 0 h, replicate number 1) | Growth Rate (U2OS; 12 h, replicate number 1) | Growth Rate (U2OS; 18 h, replicate number 2) | Growth Rate (U2OS; 24 h, replicate number 1) | Growth Rate (U2OS; 6 h, replicate number 1) | also measured |
| --- | --- | --- | --- | --- | --- | --- | --- | --- | --- | --- | --- | --- | --- | --- | --- | --- | --- | --- | --- | --- | --- |
| CN(c1ccc(C(F)(F)F)cc1)S(=O)(=O)c1ccc(C(=O)Nc2nc(-c3ccccn3)cs2)cc1 | 0.84 | 0.82 | 0.76 | 0.92 | 0.82 | -1 | 0.76 | 0.65 | 0.94 | 1 | – | – | – | – | – | – | – | – | – | – | – |
| COc1cc(F)ccc1-c1cc(Nc2cc(CS(C)(=N)=O)ccn2)ncc1F (stereo not drawn) [ENITOCICLIB] | -0.4 | -0.17 | -0.34 | – | 0.69 | -1 | 0.69 | 0.36 | 0.29 | 0.14 | 0.31 | 0.19 | -0.15 | -0.41 | -0.19 | -1 | 0.57 | 0.3 | 0.27 | – | Growth Rate (HEK-293T; 0 h, replicate number 1): -1; Growth Rate (HEK-293T; 6 h, replicate number 2): -0.19; Growth Rate (Fibroblast; 18 h, replicate number 2): 0.96 |
| CC(C)c1nc2c(c3c1[C@H](c1ccc(C(F)(F)F)cc1)OC31CCOCC1)[C@H](O)CC(C)(C)C2 | 0.84 | 0.62 | 0.94 | 0.08 | 0.1 | -0.17 | – | 0.84 | 0.93 | – | -0.1 | -0.63 | 0.02 | – | 0.41 | -1 | 0.82 | – | 0.88 | 0.38 | Growth Rate (Fibroblast; 6 h, replicate number 1): -0.78; Growth Rate (Fibroblast; 6 h, replicate number 2): -0.98; Growth Rate (Fibroblast; 12 h, replicate number 1): -0.62; Growth Rate (Fibroblast; 12 h, replicate number 2): -0.47; Growth Rate (Fibroblast; 18 h, replicate number 1): -0.17; Growth Rate (Fibroblast; 18 h, replicate number 2): -0.05 |
| CSc1ccc(C[C@@H](C)C(=O)O)cc1Nc1nc(N2CC[C@H](N(C)C)C2)cc(C(F)F)c1C#N.O=C(O)C(F)(F)F | 0.51 | 0.48 | 0.58 | 0.3 | 0.79 | – | – | – | – | – | – | 0.25 | 0.39 | 0.58 | 0.43 | -1 | – | – | – | 0.8 | Growth Rate (Fibroblast; 6 h, replicate number 1): -0.12; Growth Rate (Fibroblast; 12 h, replicate number 1): 0.16; Growth Rate (Fibroblast; 12 h, replicate number 2): 0.34; Growth Rate (Fibroblast; 18 h, replicate number 1): 0.21; Growth Rate (Fibroblast; 18 h, replicate number 2): 0.8 |
| Cn1ccc(Cn2cnc(-c3ccc(F)cc3)c2-c2ccnc3[nH]ccc23)n1 | 0.98 | – | 0.89 | – | – | 0.48 | 0.97 | 0.94 | – | 0.89 | 0.06 | – | – | 0.86 | – | 0.19 | 0.89 | 0.95 | – | 0.89 | Growth Rate (HEK-293T; 0 h, replicate number 1): -0.47; Growth Rate (Fibroblast; 0 h, replicate number 2): 0.53 |
| CC1(C)CCC(CN2CCN(c3ccc(C(=O)NS(=O)(=O)c4ccc(NCC5CCOCC5)c([N+](=O)[O-])c4)c(Oc4cnc5[nH]ccc5c4)c3)CC2)=C(c2ccc(Cl)cc2)C1 [VENETOCLAX] | – | 0.87 | – | – | – | 0.58 | 0.98 | 0.51 | 0.78 | 0.93 | 0.6 | 0.01 | 0.58 | – | 0.66 | – | 0.81 | 0.89 | 0.81 | 0.5 | Growth Rate (Fibroblast; 0 h, replicate number 2): -0.85; Growth Rate (Fibroblast; 6 h, replicate number 1): 0.5; Growth Rate (Fibroblast; 12 h, replicate number 1): 0.87; Growth Rate (U2OS; 0 h, replicate number 2): -0.65 |
| H-LVVYPWT-OH [SPINORPHIN] | – | – | – | 0.41 | 0.94 | 0.44 | 0.08 | 0.43 | 0.82 | 0.92 | 0.94 | 0.99 | – | – | – | -0.25 | 0.76 | 0.66 | – | 0.61 | Growth Rate (HEK-293T; 0 h, replicate number 1): 0.9; Growth Rate (Fibroblast; 0 h, replicate number 2): -0.78; Growth Rate (Fibroblast; 6 h, replicate number 1): -0.34; Growth Rate (Fibroblast; 6 h, replicate number 2): -0.61; Growth Rate (Fibroblast; 12 h, replicate number 1): -1; Growth Rate (Fibroblast; 12 h, replicate number 2): 0.52; Growth Rate (Fibroblast; 18 h, replicate number 1): 0.38; Growth Rate (Fibroblast; 18 h, replicate number 2): 0.87; Growth Rate (U2OS; 0 h, replicate number 2): -1 |
| CC(C)(C)c1cnc(CSc2cnc(NC(=O)C3CCNCC3)s2)o1 [BMS-387032] | -0.48 | -0.2 | -0.37 | 0.23 | -0.26 | -1 | 0.29 | 0.05 | 0.27 | -0.1 | – | -0.41 | -0.29 | -0.64 | -0.21 | -1 | 0.45 | 0.04 | 0.05 | 0.69 | Growth Rate (HEK-293T; 6 h, replicate number 2): -0.76; Growth Rate (Fibroblast; 0 h, replicate number 2): -0.8; Growth Rate (Fibroblast; 6 h, replicate number 1): 0.49; Growth Rate (Fibroblast; 6 h, replicate number 2): -0.1; Growth Rate (Fibroblast; 12 h, replicate number 1): 0.11; Growth Rate (Fibroblast; 12 h, replicate number 2): -0.28; Growth Rate (Fibroblast; 18 h, replicate number 1): 0.32; Growth Rate (Fibroblast; 18 h, replicate number 2): -0.23; Growth Rate (U2OS; 0 h, replicate number 2): 0.54 |
| CC(=O)c1ccc2c(c1)/C(=C(/Nc1cccc(C#N)c1)c1ccc3c(c1)OCCO3)C(=O)N2 | -0.03 | -0.16 | -0.02 | – | 0.84 | – | – | 0.72 | 0.73 | 0.43 | – | 0.26 | -0.22 | 0.12 | -0.15 | 0.26 | – | 0.5 | 0.52 | – | Growth Rate (HEK-293T; 0 h, replicate number 1): -0.8; Growth Rate (HEK-293T; 6 h, replicate number 2): 0.65; Growth Rate (Fibroblast; 0 h, replicate number 2): -0.78 |
| Cc1cc(-c2cc3ncccc3c(OC[C@H]3CCCNC3)n2)ccc1N(C)C.O=C(O)C(F)(F)F | -0.28 | -0.25 | -0.18 | 0.79 | 0.85 | – | 0.47 | 0.26 | 0.28 | 0.16 | -1 | -0.57 | -0.47 | -0.44 | -0.34 | -0.49 | 0.77 | 0.19 | 0.47 | – | Growth Rate (HEK-293T; 6 h, replicate number 2): -0.53; Growth Rate (Fibroblast; 0 h, replicate number 2): -0.85 |
